In patent publication US20230263822A1, “MODULATION OF FACTOR 11 EXPRESSION” (Ionis Pharmaceuticals, Inc., priority 2008, published 2023):

Legend:
human Factor 11 mRNA = test: Antisense inhibition of human Factor 11 in HepG2 cells by microwalk gapmers, lipofectin, 75 nM (Example 3); type: cell-based
Summary of the method: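 HepG2 cells (10,000/well) were transfected via lipofectin with 75 nM 20-mer MOE gapmers (phosphorothioate, 5-methyl-C) for about 24 h. Factor 11 mRNA was measured by qRT-PCR, normalized to RIBOGREEN total RNA, and given as percent inhibition versus untreated cells.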

[1] = Tolerability in Sprague-Dawley rats: kidney function, urine protein/creatinine (Example 35); settings: for Urine protein/creatinine ratio: Sprague Dawley rats; for BUN / Creatinine: Sprague-Dawley rats, plasma
Experimental: A control group of four Sprague Dawley rats was injected subcutaneously with PBS twice per week for 6 weeks. Body weight measurements were taken before and throughout the treatment period. Urine samples were taken before the start of treatment. Three days after the last dose, urine samples were taken and the rats were sacrificed. Organ weights were measured and blood was collected for further analysis.
To evaluate the effect of kidney function, plasma concentrations of blood urea nitrogen (BUN) and creatinine were measured using an automated clinical chemistry analyzer (Hitachi Olympus AU400e, Melville, N.Y.).

[2] = Hematology assays in cynomolgus monkeys (Example 46); type: in vivo
Summary of the method: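 Two male and two female monkeys per group received antisense oligonucleotide subcutaneously at 25 mg/kg, three times weekly in week 1 then twice weekly through week 8; PBS controls dosed identically. Blood sampled pre-dose and repeatedly during dosing for PT, aPTT and hematologic factors; necropsy on day 55.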

[3] = HepG2, lipofectin, ~24 h, gapmers targeted to nucleobases 656 to 704 of SEQ ID NO: 1
[4] = After treatment, 50 mg/kg s.c. twice per week for 6 weeks
[5] = Before antisense oligonucleotide treatment
[6] = 50 mg/kg s.c. twice per week for 6 weeks

## 416825 (antisense GCCCTTCATGTCTAGGTCCA; 5-10-5 gapmer, further chemistry not given here) [compound 416825]
Human Factor 11 mRNA; [3]
  % inhibition: 92%
[1]; [4]
  Urine protein/creatinine ratio: 5.4
[1]; [5]
  Urine protein/creatinine ratio: 1.1

## 416826 (antisense ATGCCCTTCATGTCTAGGTC; 5-10-5 gapmer, further chemistry not given here) [compound 416826]
Human Factor 11 mRNA; [3]
  % inhibition: 94%
[1]; [4]
  Urine protein/creatinine ratio: 11.4
[1]; [5]
  Urine protein/creatinine ratio: 1.0

## 416838 (antisense GCAACCGGGATGATGAGTGC; 5-10-5 gapmer, further chemistry not given here) [compound 416838]
Human Factor 11 mRNA; HepG2 cells, lipofectin, gapmers targeted to nucleobases 1018 to 1042 of SEQ ID NO: 1
  % inhibition: 94%
[1]; [4]
  Urine protein/creatinine ratio: 3.7
[1]; [5]
  Urine protein/creatinine ratio: 1.2

## ISIS 416850: MOE gapmer, nucleobases 1275 to 1318 of SEQ ID NO: 1 (Table 8) (antisense TGCACAGTTTCTGGCAGGCC; MOE gapmer, wing and gap sizes not given here)
[2]; Day 17
  HCT: 42%
  MCH: 23.7 pg
  MCHC: 31.3 g/dL
  MCV: 76 fL
  RBC count: 5.6e+06 µL⁻¹
  WBC count: 11000 µL⁻¹
  hemoglobin content: 13.3 g/dL
  monocytes: 3.2%
  neutrophils: 95%
  platelet count: 467 ×100/μL
[2]; Day 31
  HCT: 42%
  MCH: 23.3 pg
  MCHC: 31.0 g/dL
  MCV: 75 fL
  RBC count: 5.6e+06 µL⁻¹
  WBC count: 12000 µL⁻¹
  hemoglobin content: 13.1 g/dL
  monocytes: 3.7%
  neutrophils: 100%
  platelet count: 507 ×100/μL
[2]; Day 45
  HCT: 42%
  MCH: 22.7 pg
  MCHC: 31.0 g/dL
  MCV: 75 fL
  RBC count: 5.7e+06 µL⁻¹
  WBC count: 12000 µL⁻¹
  hemoglobin content: 13.1 g/dL
  monocytes: 3.8%
  neutrophils: 85%
  platelet count: 453 ×100/μL
[2]; Day 55
  HCT: 40%
  MCH: 22.9 pg
  MCHC: 30.9 g/dL
  MCV: 73 fL
  RBC count: 5.6e+06 µL⁻¹
  WBC count: 10000 µL⁻¹
  hemoglobin content: 12.7 g/dL
  monocytes: 3.4%
  neutrophils: 108%
  platelet count: 396 ×100/μL
[2]; Day-5
  HCT: 44%
  MCH: 23.7 pg
  MCHC: 30.7 g/dL
  MCV: 77 fL
  RBC count: 5.7e+06 µL⁻¹
  WBC count: 13000 µL⁻¹
  hemoglobin content: 13.5 g/dL
  monocytes: 2.9%
  neutrophils: 109%
  platelet count: 517 ×100/μL
[2]; Day-14
  HCT: 41%
  MCH: 23.7 pg
  MCHC: 32.0 g/dL
  MCV: 74 fL
  RBC count: 5.5e+06 µL⁻¹
  WBC count: 12000 µL⁻¹
  hemoglobin content: 13.0 g/dL
  monocytes: 1.9%
  neutrophils: 88%
  platelet count: 462 ×100/μL
[1]; [6]
  BUN: 5 mg/dL
  Creatinine: 7 mg/dL

## ISIS 416858: MOE gapmer, nucleobases 1275 to 1318 of SEQ ID NO: 1 (Table 8) (antisense ACGGCATTGGTGCACAGTTT; MOE gapmer, wing and gap sizes not given here)
[2]; Day 17
  HCT: 43%
  MCH: 23.1 pg
  MCHC: 29.9 g/dL
  MCV: 78 fL
  RBC count: 5.6e+06 µL⁻¹
  WBC count: 10000 µL⁻¹
  hemoglobin content: 13.0 g/dL
  monocytes: 4.0%
  neutrophils: 54%
  platelet count: 358 ×100/μL
[2]; Day 31
  HCT: 43%
  MCH: 23.0 pg
  MCHC: 31.0 g/dL
  MCV: 76 fL
  RBC count: 5.6e+06 µL⁻¹
  WBC count: 9000 µL⁻¹
  hemoglobin content: 12.8 g/dL
  monocytes: 4.7%
  neutrophils: 54%
  platelet count: 289 ×100/μL
[2]; Day 45
  HCT: 41%
  MCH: 22.2 pg
  MCHC: 30.3 g/dL
  MCV: 75 fL
  RBC count: 5.5e+06 µL⁻¹
  WBC count: 8000 µL⁻¹
  hemoglobin content: 12.3 g/dL
  monocytes: 4.6%
  neutrophils: 61%
  platelet count: 287 ×100/μL
[2]; Day 55
  HCT: 39%
  MCH: 22.8 pg
  MCHC: 30.4 g/dL
  MCV: 75 fL
  RBC count: 5.3e+06 µL⁻¹
  WBC count: 9000 µL⁻¹
  hemoglobin content: 12.0 g/dL
  monocytes: 4.6%
  neutrophils: 73%
  platelet count: 257 ×100/μL
[2]; Day-5
  HCT: 44%
  MCH: 23.5 pg
  MCHC: 29.8 g/dL
  MCV: 79 fL
  RBC count: 5.5e+06 µL⁻¹
  WBC count: 11000 µL⁻¹
  hemoglobin content: 13.0 g/dL
  monocytes: 2.7%
  neutrophils: 84%
  platelet count: 433 ×100/μL
[2]; Day-14
  HCT: 41%
  MCH: 23.2 pg
  MCHC: 31.1 g/dL
  MCV: 75 fL
  RBC count: 5.5e+06 µL⁻¹
  WBC count: 10000 µL⁻¹
  hemoglobin content: 12.8 g/dL
  monocytes: 2.0%
  neutrophils: 65%
  platelet count: 369 ×100/μL
[1]; [6]
  BUN: 8 mg/dL
  Creatinine: 4 mg/dL
